Drawing on paper PMC12843137, “Fine-Tuning Side Chain Substitutions: Impacts on the Lipophilicity–Solubility–Permeability Interplay in Macrocyclic Peptides” (Marine Drugs, 2025), this text covers logD for three molecules.

The data set can be described thus: log D7.4 by shake-flask method (1-octanol/PBS). It counts as physicochemical. The following applies: 1-octanol/PBS, pH 7.4, 1-Octanol/PBS pH 7.4, shake-flask. As for the experimental part:
One explanation for the high IC50 values (i.e., low activity) of the new compounds is their potential poor solubility in aqueous solution or inadequate lipophilicity. To investigate this hypothesis, we determined kinetic solubility in […] phosphate buffer at pH 7.4 (Table 1). […] The remaining two compounds, BE and 29, show low solubilities (<0.1 μM). […] Additionally, since approximately 95% of drugs are ionizable, assessment of lipophilicity at pH 7.4 (log D7.4) is essential during the initial phases of drug discovery. In this study, we employ the shake-flask method to evaluate this property. […] Because lipophilicity directly reflects compound–membrane interaction, the activity of these compounds against PANC-1 cells likely stems from their interaction with the cell membrane.
The basic solution is titrated with the acidic solution to achieve pH 7.4, with the pH verified and adjusted to 7.4 ± 0.1 on the experiment day. Saturated 1-octanol and PBS (pH 7.4) are also prepared. The stock solutions of test compounds and control compound progesterone are prepared in DMSO at a concentration of 10 mM (0.666 mM: compound 39). The detailed procedure for log D determinations can be found in the SI. […]
4. Procedure for log D determinations […]
µL of phosphate buffer saturated 1-octanol to get a concentration of 300 µM working solution. 20 µL of 300 µM compound solution is placed in order into their proper 96-well rack followed by the addition of 980 µL of 1-octanol saturated phosphate buffer. One stir stick is added to each vial and vials are sealed molded PTFE/Silicone plugs. Then the log D plate is transferred to the Eppendorf Thermomixer Comfort plate shaker and shaken at 25°C at 1,100 RPM for 1 h. The assay is performed in duplicate. After completion of 1 h, the stir sticks are removed using a big magnet. The samples are then centrifuged at 25°C at 20,000 g for 20 minutes to separate the phases, and syringe is used to remove the lower (buffer) phases to the empty tubes. Then the buffer phase is diluted with the same volume of acetonitrile/ultrapure water (50%/50%) for LC-MS/MS analysis. 300 µM working solution is diluted with acetonitrile/ultrapure water (50%/50%) to achieve a concentration of 3 µM. Then the 3 µM solution is diluted to 0.3 µM to get the total samples by adding 4 volumes of acetonitrile/ultrapure water (50%/50%) and 5 volumes of 1-octanol saturated Phosphate Buffer for LC-MS/MS analysis. […]
test compounds and control compound is placed in order into their 2.0 mL deep well plate, 500 µL of […]
followed by the addition of 500 µL of saturated PBS (pH 7.4). Seal the plate using a Silicone sealing mat.
Then the log D plate is transferred to the Eppendorf Thermomixer Comfort plate shaker and shaken at 25°C at 2,000 RPM for 2 h. After completion of 2 h, the samples are then centrifuged at 25°C at 3,220 g for 30 minutes to separate the phases, and pipette are used to remove the upper (1-octanol) and lower (buffer) phases to the empty tubes, respectively. Aliquots of 50 µL are taken from upper phases followed by addition of 450 µL of acetonitrile (containing internal standards (IS, 200 nM labetalol, 100 nM tolbutamide and 100 nM ketoprofen)). Mix with a pipette, and then aliquots of 50 µL are taken from the diluent followed by addition of 450 µL of acetonitrile (containing internal standards (IS, 200 nM labetalol, 100 nM tolbutamide and 100 nM ketoprofen)). […]

Consider `CCCCOc1ccc(-c2ccc(-c3ccc(Cn4cc(CCCCC[C@H]5OC(=O)CN(C)C(=O)/C=C/[C@@H](CN6CCN(C)CC6)NC(=O)CNC(=O)[C@@](C)(O)C(=O)[C@H]5C)nn4)cc3)cc2)cc1` [Compound 29], for which the logD amounted to 3.87.

Molecule `CCCCCCCCCCCCCC1OC(=O)CN(C)C(=O)C=CC(CN2CCN(C)CC2)NC(=O)CNC(=O)C(C)(O)C(=O)C1C` (stereo not drawn) [BE-NMP] gave a logD greater than 5.

As to `C[C@@H]1C(=O)[C@](C)(O)C(=O)NCC(=O)N[C@H](CN2CCN(C)CC2)/C=C/C(=O)N(C)CC(=O)O[C@H]1CCCCCc1cn(CCCCCCCNc2cccc3c2CN(C2CCC(=O)NC2=O)C3=O)nn1` (stereo partly drawn) [Compound 40], the logD is 0.93.
